Data from ChEMBL document CHEMBL3046897, “Synthesis of 3-{4-[4-dimethylamino-6-(4-methyl-2-oxo-2H-chromen-7-yloxy)-[1,3,5]triazin-2-ylamino]-phenyl}-2-phenyl-5-(4-pyridin-2-yl-piperazin-1-ylmethyl)-thiazolidin-4-one and their biological evaluation” (2012).
Values after ≈ are worked out from the molar mass of the structure shown.

Assays:
Format in all cases: functional
Proteus vulgaris [1] = assay: Antibacterial activity against Proteus vulgaris at 100 ug/disk after 24 hr by paper disk diffusion method; conditions: read-out: IZ
Shigella flexneri [2] = assay: Antibacterial activity against Shigella flexneri at 100 ug/disc after 24 hr by paper disk diffusion method; conditions: read-out: IZ
Salmonella typhi [3] = assay: Antibacterial activity against Salmonella enterica subsp. enterica serovar Typhi after 24 hr by agar streak dilution method
Escherichia coli [4] = assay: Antibacterial activity against Escherichia coli at 100 ug/disk after 24 hr by paper disk diffusion method; conditions: read-out: IZ
Klebsiella pneumoniae [5] = assay: Antibacterial activity against Klebsiella pneumoniae after 24 hr by agar streak dilution method
Staphylococcus aureus [6] = assay: Antibacterial activity against Staphylococcus aureus at 100 ug/disc after 24 hr by paper disk diffusion method; conditions: read-out: IZ
Salmonella typhi [7] = assay: Antibacterial activity against Salmonella enterica subsp. enterica serovar Typhi at 100 ug/disk after 24 hr by paper disk diffusion method; conditions: read-out: IZ
Klebsiella pneumoniae [8] = assay: Antibacterial activity against Klebsiella pneumoniae at 100 ug/disk after 24 hr by paper disk diffusion method; conditions: read-out: IZ
Candida albicans [9] = assay: Antifungal activity against Candida albicans at 100 ug/disk after 48 hr by paper disk diffusion method; conditions: read-out: IZ
Aspergillus niger [10] = assay: Antifungal activity against Aspergillus niger after 48 hr by agar streak dilution method
Candida albicans [11] = assay: Antifungal activity against Candida albicans after 48 hr by agar streak dilution method
Pseudomonas aeruginosa [12] = assay: Antibacterial activity against Pseudomonas aeruginosa after 24 hr by agar streak dilution method
Escherichia coli [13] = assay: Antibacterial activity against Escherichia coli after 24 hr by agar streak dilution method
Bacillus subtilis [14] = assay: Antibacterial activity against Bacillus subtilis after 24 hr by agar streak dilution method
Bacillus subtilis [15] = assay: Antibacterial activity against Bacillus subtilis at 100 ug/disk after 24 hr by paper disk diffusion method; conditions: read-out: IZ
Shigella flexneri [16] = assay: Antibacterial activity against Shigella flexneri after 24 hr by agar streak dilution method
Staphylococcus aureus [17] = assay: Antibacterial activity against Staphylococcus aureus after 24 hr by agar streak dilution method
Aspergillus fumigatus [18] = assay: Antifungal activity against Aspergillus fumigatus after 48 hr by agar streak dilution method
Aspergillus clavatus [19] = assay: Antifungal activity against Aspergillus clavatus at 100 ug/disc after 48 hr by paper disk diffusion method; conditions: read-out: IZ
Aspergillus clavatus [20] = assay: Antifungal activity against Aspergillus clavatus after 48 hr by agar streak dilution method
Aspergillus niger [21] = assay: Antifungal activity against Aspergillus niger at 100 ug/disk after 48 hr by paper disk diffusion method; conditions: read-out: IZ
Pseudomonas aeruginosa [22] = assay: Antibacterial activity against Pseudomonas aeruginosa at 100 ug/disk after 24 hr by paper disk diffusion method; conditions: read-out: IZ
Aspergillus fumigatus [23] = assay: Antifungal activity against Aspergillus fumigatus at 100 ug/disc after 48 hr by paper disk diffusion method; conditions: read-out: IZ
Proteus vulgaris [24] = assay: Antibacterial activity against Proteus vulgaris after 24 hr by agar streak dilution method

## Cc1cc(=O)oc2cc(Oc3nc(Nc4ccc(/N=C/c5ccc(O)cc5)cc4)nc(N(C)C)n3)ccc12
Proteus vulgaris [1]
  zone of inhibition at 100 µg/disc: 19 mm
Shigella flexneri [2]
  zone of inhibition at 100 µg/disc: 17 mm
Salmonella typhi [3]
  MIC: 50 µg/mL (≈ 98.3 µM)
Escherichia coli [4]
  zone of inhibition at 100 µg/disc: 20 mm
Klebsiella pneumoniae [5]
  MIC: 100 µg/mL (≈ 197 µM)
Staphylococcus aureus [6]
  zone of inhibition at 100 µg/disc: 20 mm
Salmonella typhi [7]
  zone of inhibition at 100 µg/disc: 19 mm
Klebsiella pneumoniae [8]
  zone of inhibition at 100 µg/disc: 11 mm
Candida albicans [9]
  zone of inhibition at 100 µg/disc: 16 mm
Aspergillus niger [10]
  MIC: 50 µg/mL (≈ 98.3 µM)
Candida albicans [11]
  MIC: 100 µg/mL (≈ 197 µM)
Pseudomonas aeruginosa [12]
  MIC: 50 µg/mL (≈ 98.3 µM)
Escherichia coli [13]
  MIC: 25 µg/mL (≈ 49.2 µM)
Bacillus subtilis [14]
  MIC: 50 µg/mL (≈ 98.3 µM)
Bacillus subtilis [15]
  zone of inhibition at 100 µg/disc: 18 mm
Shigella flexneri [16]
  MIC: 100 µg/mL (≈ 197 µM)
Staphylococcus aureus [17]
  MIC: 25 µg/mL (≈ 49.2 µM)
Aspergillus fumigatus [18]
  MIC: 50 µg/mL (≈ 98.3 µM)
Aspergillus clavatus [19]
  zone of inhibition at 100 µg/disc: 14 mm
Aspergillus clavatus [20]
  MIC: 100 µg/mL (≈ 197 µM)
Aspergillus niger [21]
  zone of inhibition at 100 µg/disc: 20 mm
Pseudomonas aeruginosa [22]
  zone of inhibition at 100 µg/disc: 18 mm
Aspergillus fumigatus [23]
  zone of inhibition at 100 µg/disc: 18 mm
Proteus vulgaris [24]
  MIC: 50 µg/mL (≈ 98.3 µM)

## Cc1cc(=O)oc2cc(Oc3nc(Nc4ccc(N5C(=O)CSC5c5ccc(O)cc5O)cc4)nc(N(C)C)n3)ccc12 (stereo not given)
Proteus vulgaris [1]
  zone of inhibition at 100 µg/disc: 19 mm
Shigella flexneri [2]
  zone of inhibition at 100 µg/disc: 23 mm
Salmonella typhi [3]
  MIC: 12.5 µg/mL (≈ 20.9 µM)
Escherichia coli [4]
  zone of inhibition at 100 µg/disc: 20 mm
Klebsiella pneumoniae [5]
  MIC: 25 µg/mL (≈ 41.8 µM)
Staphylococcus aureus [6]
  zone of inhibition at 100 µg/disc: 22 mm
Salmonella typhi [7]
  zone of inhibition at 100 µg/disc: 24 mm
Klebsiella pneumoniae [8]
  zone of inhibition at 100 µg/disc: 22 mm
Candida albicans [9]
  zone of inhibition at 100 µg/disc: 22 mm
Aspergillus niger [10]
  MIC: 50 µg/mL (≈ 83.5 µM)
Candida albicans [11]
  MIC: 12.5 µg/mL (≈ 20.9 µM)
Pseudomonas aeruginosa [12]
  MIC: 50 µg/mL (≈ 83.5 µM)
Escherichia coli [13]
  MIC: 25 µg/mL (≈ 41.8 µM)
Bacillus subtilis [14]
  MIC: 25 µg/mL (≈ 41.8 µM)
Bacillus subtilis [15]
  zone of inhibition at 100 µg/disc: 20 mm
Shigella flexneri [16]
  MIC: 25 µg/mL (≈ 41.8 µM)
Staphylococcus aureus [17]
  MIC: 12.5 µg/mL (≈ 20.9 µM)
Aspergillus fumigatus [18]
  MIC: 25 µg/mL (≈ 41.8 µM)
Aspergillus clavatus [19]
  zone of inhibition at 100 µg/disc: 19 mm
Aspergillus clavatus [20]
  MIC: 50 µg/mL (≈ 83.5 µM)
Aspergillus niger [21]
  zone of inhibition at 100 µg/disc: 18 mm
Pseudomonas aeruginosa [22]
  zone of inhibition at 100 µg/disc: 18 mm
Aspergillus fumigatus [23]
  zone of inhibition at 100 µg/disc: 21 mm
Proteus vulgaris [24]
  MIC: 50 µg/mL (≈ 83.5 µM)

## Cc1cc(=O)oc2cc(Oc3nc(Nc4ccc(/N=C/c5ccc(O)cc5O)cc4)nc(N(C)C)n3)ccc12
Proteus vulgaris [1]
  zone of inhibition at 100 µg/disc: 17 mm
Shigella flexneri [2]
  zone of inhibition at 100 µg/disc: 18 mm
Salmonella typhi [3]
  MIC: 50 µg/mL (≈ 95.3 µM)
Escherichia coli [4]
  zone of inhibition at 100 µg/disc: 18 mm
Klebsiella pneumoniae [5]
  MIC: 50 µg/mL (≈ 95.3 µM)
Staphylococcus aureus [6]
  zone of inhibition at 100 µg/disc: 20 mm
Salmonella typhi [7]
  zone of inhibition at 100 µg/disc: 18 mm
Klebsiella pneumoniae [8]
  zone of inhibition at 100 µg/disc: 19 mm
Candida albicans [9]
  zone of inhibition at 100 µg/disc: 20 mm
Aspergillus niger [10]
  MIC: 100 µg/mL (≈ 191 µM)
Candida albicans [11]
  MIC: 25 µg/mL (≈ 47.7 µM)
Pseudomonas aeruginosa [12]
  MIC: 50 µg/mL (≈ 95.3 µM)
Escherichia coli [13]
  MIC: 25 µg/mL (≈ 47.7 µM)
Bacillus subtilis [14]
  MIC: 25 µg/mL (≈ 47.7 µM)
Bacillus subtilis [15]
  zone of inhibition at 100 µg/disc: 18 mm
Shigella flexneri [16]
  MIC: 100 µg/mL (≈ 191 µM)
Staphylococcus aureus [17]
  MIC: 12.5 µg/mL (≈ 23.8 µM)
Aspergillus fumigatus [18]
  MIC: 25 µg/mL (≈ 47.7 µM)
Aspergillus clavatus [19]
  zone of inhibition at 100 µg/disc: 15 mm
Aspergillus clavatus [20]
  MIC: 100 µg/mL (≈ 191 µM)
Aspergillus niger [21]
  zone of inhibition at 100 µg/disc: 14 mm
Pseudomonas aeruginosa [22]
  zone of inhibition at 100 µg/disc: 17 mm
Aspergillus fumigatus [23]
  zone of inhibition at 100 µg/disc: 18 mm
Proteus vulgaris [24]
  MIC: 50 µg/mL (≈ 95.3 µM)

## Cc1cc(=O)oc2cc(Oc3nc(Nc4ccc(N5C(=O)CSC5c5ccc(F)cc5)cc4)nc(N(C)C)n3)ccc12 (stereo not given)
Proteus vulgaris [1]
  zone of inhibition at 100 µg/disc: 20 mm
Shigella flexneri [2]
  zone of inhibition at 100 µg/disc: 18 mm
Salmonella typhi [3]
  MIC: 50 µg/mL (≈ 85.5 µM)
Escherichia coli [4]
  zone of inhibition at 100 µg/disc: 17 mm
Klebsiella pneumoniae [5]
  MIC: 100 µg/mL (≈ 171 µM)
Staphylococcus aureus [6]
  zone of inhibition at 100 µg/disc: 23 mm
Salmonella typhi [7]
  zone of inhibition at 100 µg/disc: 17 mm
Klebsiella pneumoniae [8]
  zone of inhibition at 100 µg/disc: 15 mm
Candida albicans [9]
  zone of inhibition at 100 µg/disc: 24 mm
Aspergillus niger [10]
  MIC: 12.5 µg/mL (≈ 21.4 µM)
Candida albicans [11]
  MIC: 12.5 µg/mL (≈ 21.4 µM)
Pseudomonas aeruginosa [12]
  MIC: 25 µg/mL (≈ 42.8 µM)
Escherichia coli [13]
  MIC: 50 µg/mL (≈ 85.5 µM)
Bacillus subtilis [14]
  MIC: 25 µg/mL (≈ 42.8 µM)
Bacillus subtilis [15]
  zone of inhibition at 100 µg/disc: 20 mm
Shigella flexneri [16]
  MIC: 50 µg/mL (≈ 85.5 µM)
Staphylococcus aureus [17]
  MIC: 25 µg/mL (≈ 42.8 µM)
Aspergillus fumigatus [18]
  MIC: 50 µg/mL (≈ 85.5 µM)
Aspergillus clavatus [19]
  zone of inhibition at 100 µg/disc: 22 mm
Aspergillus clavatus [20]
  MIC: 25 µg/mL (≈ 42.8 µM)
Aspergillus niger [21]
  zone of inhibition at 100 µg/disc: 25 mm
Pseudomonas aeruginosa [22]
  zone of inhibition at 100 µg/disc: 22 mm
Aspergillus fumigatus [23]
  zone of inhibition at 100 µg/disc: 18 mm
Proteus vulgaris [24]
  MIC: 25 µg/mL (≈ 42.8 µM)

## Cc1cc(=O)oc2cc(Oc3nc(Nc4ccc(/N=C/c5cccc(F)c5)cc4)nc(N(C)C)n3)ccc12
Proteus vulgaris [1]
  zone of inhibition at 100 µg/disc: 14 mm
Shigella flexneri [2]
  zone of inhibition at 100 µg/disc: 19 mm
Salmonella typhi [3]
  MIC: 25 µg/mL (≈ 49 µM)
Escherichia coli [4]
  zone of inhibition at 100 µg/disc: 20 mm
Klebsiella pneumoniae [5]
  MIC: 50 µg/mL (≈ 97.9 µM)
Staphylococcus aureus [6]
  zone of inhibition at 100 µg/disc: 13 mm
Salmonella typhi [7]
  zone of inhibition at 100 µg/disc: 18 mm
Klebsiella pneumoniae [8]
  zone of inhibition at 100 µg/disc: 16 mm
Candida albicans [9]
  zone of inhibition at 100 µg/disc: 13 mm
Aspergillus niger [10]
  MIC: 50 µg/mL (≈ 97.9 µM)
Candida albicans [11]
  MIC: 100 µg/mL (≈ 196 µM)
Pseudomonas aeruginosa [12]
  MIC: 100 µg/mL (≈ 196 µM)
Escherichia coli [13]
  MIC: 50 µg/mL (≈ 97.9 µM)
Bacillus subtilis [14]
  MIC: 50 µg/mL (≈ 97.9 µM)
Bacillus subtilis [15]
  zone of inhibition at 100 µg/disc: 16 mm
Shigella flexneri [16]
  MIC: 50 µg/mL (≈ 97.9 µM)
Staphylococcus aureus [17]
  MIC: 100 µg/mL (≈ 196 µM)
Aspergillus fumigatus [18]
  MIC: 100 µg/mL (≈ 196 µM)
Aspergillus clavatus [19]
  zone of inhibition at 100 µg/disc: 17 mm
Aspergillus clavatus [20]
  MIC: 50 µg/mL (≈ 97.9 µM)
Aspergillus niger [21]
  zone of inhibition at 100 µg/disc: 18 mm
Pseudomonas aeruginosa [22]
  zone of inhibition at 100 µg/disc: 17 mm
Aspergillus fumigatus [23]
  zone of inhibition at 100 µg/disc: 14 mm
Proteus vulgaris [24]
  MIC: 100 µg/mL (≈ 196 µM)
